Counter-ions that a name gives are not always drawn.
Biological target: HIS-TGF-βR1 T204D (Homo sapiens (Human), UniProt P36897, T204D)
Test: HTRF probe displacement assay with HIS-TGF-βR1 T204D
Details: read-out: TGFbr1 IC50; HTRF probe displacement, 1 nM HIS-TGF-βR1 T204D, 1 hour at room temperature

Chain of HIS-TGF-βR1 T204D (P36897 34-503 T204D): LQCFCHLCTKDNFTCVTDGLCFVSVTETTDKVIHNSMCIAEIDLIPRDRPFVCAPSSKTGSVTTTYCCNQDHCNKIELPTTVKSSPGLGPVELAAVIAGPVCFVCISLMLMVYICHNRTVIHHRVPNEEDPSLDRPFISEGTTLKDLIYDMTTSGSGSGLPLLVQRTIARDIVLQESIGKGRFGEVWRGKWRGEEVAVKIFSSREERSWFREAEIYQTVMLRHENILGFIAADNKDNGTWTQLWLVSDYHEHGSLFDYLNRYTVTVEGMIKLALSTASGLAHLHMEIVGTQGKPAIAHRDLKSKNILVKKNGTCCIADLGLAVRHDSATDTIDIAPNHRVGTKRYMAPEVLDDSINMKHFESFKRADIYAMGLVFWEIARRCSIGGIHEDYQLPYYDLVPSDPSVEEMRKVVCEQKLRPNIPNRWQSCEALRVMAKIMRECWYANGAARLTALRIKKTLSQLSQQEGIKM

Row | IC50 | Compound
1 | 0.9 nM | N#Cc1cnc2ccc(-c3c(-c4ccc(F)c(Cl)c4)ncn3[C@@H]3CCC(F)(F)C3)nn12 [63′, (R)-6-(4-(3-chloro-4-fluorophenyl)-1-(3,3-difluorocyclopentyl)-1H-imidazol-5-yl)imidazo[1,2-b]pyridazine-3-carbonitrile]
2 | 13.1 nM | CCn1cnc(-c2ccc(F)c(Cl)c2)c1-c1ccc2ncc(C#N)n2c1 [94′, 6-(4-(3-chloro-4-fluorophenyl)-1-ethyl-1H-imidazol-5-yl)imidazo[1,2-a]pyridine-3-carbonitrile]
3 | 9.9 nM | Fc1ccc(-c2ncn(CC(F)F)c2-c2ccc3nccn3c2)cc1Cl [219′, 6-(4-(3-chloro-4-fluorophenyl)-1-(2,2-difluoroethyl)-1H-imidazol-5-yl)imidazo[1,2-a]pyridine]
4 | 1.9 nM | NC(=O)c1cnc2ccc(-c3c(-c4ccc(F)cc4)ncn3CCCF)cn12 [162′, 6-(4-(4-fluorophenyl)-1-(3-fluoropropyl)-1H-imidazol-5-yl)imidazo[1,2-a]pyridine-3-carboxamide]
5 | 0.6 nM | N#Cc1cnc2ccc(-c3c(-c4ccc(F)cc4)ncn3C3CC(CO)C3)nn12 (centres unmarked) [27′, 6-(4-(4-fluorophenyl)-1-(3-(hydroxymethyl)cyclobutyl)-1H-imidazol-5-yl)imidazo[1,2-b]pyridazine-3-carbonitrile]
6 | 173 nM | Cc1ccc(-c2ncn(CC(F)F)c2-c2ccc3ncc(C#N)n3n2)cc1 [241′, 6-(1-(2,2-difluoroethyl)-4-(p-tolyl)-1H-imidazol-5-yl)imidazo[1,2-b]pyridazine-3-carbonitrile]
7 | 1 nM | NC(=O)c1cnc2ccc(-c3c(-c4ccc(F)cc4F)ncn3CC(F)F)cn12 [233′, 6-(1-(2,2-difluoroethyl)-4-(2,4-difluorophenyl)-1H-imidazol-5-yl)imidazo[1,2-a]pyridine-3-carboxamide]
8 | 31 nM | CC(CCO)n1cnc(-c2ccc(F)cc2)c1-c1ccc2ncc(C#N)n2c1 (centres unmarked) [80′, 6-(4-(4-fluorophenyl)-1-(4-hydroxybutan-2-yl)-1H-imidazol-5-yl)imidazo[1,2-a]pyridine-3-carbonitrile]
9 | 1.7 nM | NC(=O)c1cnc2ccc(-c3c(-c4ccc(F)c(Cl)c4)ncn3CCCCl)nn12 [149′, 6-(4-(3-chloro-4-fluorophenyl)-1-(3-chloropropyl)-1H-imidazol-5-yl)imidazo[1,2-b]pyridazine-3-carboxamide]
10 | 2 nM | CC(CO)n1cnc(-c2ccc(F)cc2)c1-c1ccc2ncc(C(N)=O)n2c1 (centres unmarked) [175′, 6-(4-(4-fluorophenyl)-1-(1-hydroxypropan-2-yl)-1H-imidazol-5-yl)imidazo[1,2-a]pyridine-3-carboxamide]
11 | 11.6 nM | N#Cc1cnc2ccc(-c3c(-c4ccc(F)c(Cl)c4)ncn3CCO)cn12 [100′, 6-(4-(3-chloro-4-fluorophenyl)-1-(2-hydroxyethyl)-1H-imidazol-5-yl)imidazo[1,2-a]pyridine-3-carbonitrile]
12 | 18.8 nM | CCOCCn1cnc(-c2ccc(F)cc2)c1-c1ccc2ncc(C#N)n2c1 [91′, 6-(1-(2-ethoxyethyl)-4-(4-fluorophenyl)-1H-imidazol-5-yl)imidazo[1,2-a]pyridine-3-carbonitrile]
13 | 0.5 nM | CC(C)n1cnc(-c2ccc(F)cc2)c1-c1ccc2ncc(C(N)=O)n2c1 [170′, 6-(4-(4-fluorophenyl)-1-isopropyl-1H-imidazol-5-yl)imidazo[1,2-a]pyridine-3-carboxamide]
14 | 3.9 nM | Cn1cnc(-c2ccc(F)cc2)c1-c1ccc2ncc(C(N)=O)n2n1 [134′, 6-(4-(4-fluorophenyl)-1-methyl-1H-imidazol-5-yl)imidazo[1,2-b]pyridazine-3-carboxamide]
15 | 5.1 nM | N#Cc1cnc2ccc(-c3c(-c4ccc(F)c(Cl)c4)ncn3[C@H]3CCC(F)(F)C3)nn12 [64′, (S)-6-(4-(3-chloro-4-fluorophenyl)-1-(3,3-difluorocyclopentyl)-1H-imidazol-5-yl)imidazo[1,2-b]pyridazine-3-carbonitrile]
16 | 2.5 nM | CC(C)(O)CCn1cnc(-c2ccc(F)c(Cl)c2)c1-c1ccc2ncc(C#N)n2n1 [37′, 6-(4-(3-chloro-4-fluorophenyl)-1-(3-hydroxy-3-methylbutyl)-1H-imidazol-5-yl)imidazo[1,2-b]pyridazine-3-carbonitrile]
17 | 1.6 nM | Fc1ccc(-c2ncn(C3(C(F)F)CC3)c2-c2ccc3nccn3n2)cc1 [Example 189′, 6-(1-(1-(difluoromethyl)cyclopropyl)-4-(4-fluorophenyl)-1H-imidazol-5-yl)imidazo[1,2-b]pyridazine]
18 | 0.9 nM | N#Cc1cnc2ccc(-c3c(-c4ccc(F)c(Cl)c4)ncn3CCCl)nn12 [60′, 6-(4-(3-chloro-4-fluorophenyl)-1-(2-chloroethyl)-1H-imidazol-5-yl)imidazo[1,2-b]pyridazine-3-carbonitrile]
19 | 0.9 nM | CCn1cnc(-c2ccc(F)c(Cl)c2)c1-c1ccc2ncc(C#N)n2n1 [52′, 6-(4-(3-chloro-4-fluorophenyl)-1-ethyl-1H-imidazol-5-yl)imidazo[1,2-b]pyridazine-3-carbonitrile]

Row | IC50 | Compound
20 | 2.3 nM | N#Cc1cnc2ccc(-c3c(-c4ccc(F)cc4)ncn3[C@H]3C[C@@H](O)C3)nn12 [Example 2′]
21 | 0.3 nM | N#Cc1cnc2ccc(-c3c(-c4ccc(F)cc4)ncn3C3(C#N)CC3)nn12 [Example 267′, 6-(1-(1-cyanocyclopropyl)-4-(4-fluorophenyl)-1H-imidazol-5-yl)imidazo[1,2-b]pyridazine-3-carbonitrile, TFA]
22 | 6.7 nM | NC(=O)c1cnc2ccc(-c3c(-c4ccc(F)cc4)ncn3C[C@H](O)CO)cn12 [161′, (S)-6-(1-(2,3-dihydroxypropyl)-4-(4-fluorophenyl)-1H-imidazol-5-yl)imidazo[1,2-a]pyridine-3-carboxamide]
23 | 568 nM | N#Cc1cnc2ccc(-c3c(-c4ccc(F)cc4)ncn3C3COC3)cn12 [78′, 6-(4-(4-fluorophenyl)-1-(oxetan-3-yl)-1H-imidazol-5-yl)imidazo[1,2-a]pyridine-3-carbonitrile]
24 | 1 nM | N#Cc1cnc2ccc(-c3c(-c4ccc(F)c(Cl)c4)ncn3CC(F)F)nn12 [33′, 6-(4-(3-chloro-4-fluorophenyl)-1-(2,2-difluoroethyl)-1H-imidazol-5-yl)imidazo[1,2-b]pyridazine-3-carbonitrile]
25 | 0.6 nM | CCC(C)n1cnc(-c2ccc(F)cc2)c1-c1ccc2ncc(C(N)=O)n2c1 (centres unmarked) [174′, 6-(1-(sec-butyl)-4-(4-fluorophenyl)-1H-imidazol-5-yl)imidazo[1,2-a]pyridine-3-carboxamide]
26 | 0.6 nM | CC(C)n1cnc(-c2ccc(F)c(Cl)c2)c1-c1ccc2ncc(C#N)n2n1 [51′, 6-(4-(3-chloro-4-fluorophenyl)-1-isopropyl-1H-imidazol-5-yl)imidazo[1,2-b]pyridazine-3-carbonitrile]
27 | 0.8 nM | Fc1ccc(-c2ncn(CC(F)F)c2-c2ccc3ncc(C(F)F)n3n2)cc1 [Example 215′, 6-(1-(2,2-difluoroethyl)-4-(4-fluorophenyl)-1H-imidazol-5-yl)-3-(difluoromethyl)imidazo[1,2-b]pyridazine]
28 | 9.3 nM | CC(=O)Nc1cnc2ccc(-c3c(-c4ccc(F)cc4)ncn3CC(F)F)nn12 [Example 212′, N-(6-(1-(2,2-difluoroethyl)-4-(4-fluorophenyl)-1H-imidazol-5-yl)imidazo[1,2-b]pyridazin-3-yl)acetamide]
29 | 5 nM | N#Cc1cnc2ccc(-c3c(-c4cccc(CO)c4)ncn3CC(F)F)nn12 [256′, 6-(1-(2,2-difluoroethyl)-4-(3-(hydroxymethyl)phenyl)-1H-imidazol-5-yl)imidazo[1,2-b]pyridazine-3-carbonitrile]
30 | 1.9 nM | N#Cc1cnc2ccc(-c3c(-c4ccc(F)cc4)ncn3CCF)nn12 [9′, 6-(1-(2-fluoroethyl)-4-(4-fluorophenyl)-1H-imidazol-5-yl)imidazo[1,2-b]pyridazine-3-carbonitrile]
31 | 4.9 nM | NC(=O)c1cnc2ccc(-c3c(-c4ccc(F)cc4)ncn3CCCO)cn12 [165′, 6-(4-(4-fluorophenyl)-1-(3-hydroxypropyl)-1H-imidazol-5-yl)imidazo[1,2-a]pyridine-3-carboxamide]
32 | 43.3 nM | CN1CCn2c(nc(-c3ccc(F)cc3)c2-c2ccc3ncc(C(N)=O)n3c2)C1 [Example 293′, 6-(2-(4-fluorophenyl)-7-methyl-5,6,7,8-tetrahydroimidazo[1,2-a]pyrazin-3-yl)imidazo[1,2-a]pyridine-3-carboxamide]
33 | 0.9 nM | CC1(n2cnc(-c3ccc(F)c(Cl)c3)c2-c2ccc3ncc(C#N)n3n2)CC1 [41′, 6-(4-(3-chloro-4-fluorophenyl)-1-(1-methylcyclopropyl)-1H-imidazol-5-yl)imidazo[1,2-b]pyridazine-3-carbonitrile]
34 | 10.4 nM | Cc1nc(-c2ccc(F)cc2)c(-c2ccc3ncc(C(N)=O)n3c2)n1CC(F)F [Example 272′, 6-(1-(2,2-difluoroethyl)-4-(4-fluorophenyl)-2-methyl-1H-imidazol-5-yl)imidazo[1,2-a]pyridine-3-carboxamide]
35 | 8.6 nM | N#Cc1cnc2ccc(-c3c(-c4cc(Cl)c(F)cc4F)ncn3CC(F)F)cn12 [229′, 6-(4-(5-chloro-2,4-difluorophenyl)-1-(2,2-difluoroethyl)-1H-imidazol-5-yl)imidazo[1,2-a]pyridine-3-carbonitrile]
36 | 1.1 nM | CCCn1cnc(-c2ccc(F)cc2)c1-c1ccc2ncc(C(N)=O)n2c1 [177′, 6-(4-(4-fluorophenyl)-1-propyl-1H-imidazol-5-yl)imidazo[1,2-b]pyridine-3-carboxamide]
37 | 867 nM | N#Cc1cnc2ccc(-c3c(-c4cccc(C(N)=O)c4)ncn3CC(F)F)nn12 [255′, 3-(5-(3-cyanoimidazo[1,2-b]pyridazin-6-yl)-1-(2,2-difluoroethyl)-1H-imidazol-4-yl)benzamide]
38 | 0.6 nM | CC(F)(F)Cn1cnc(-c2ccc(F)cc2)c1-c1ccc2ncc(C(N)=O)n2n1 [137′, 6-(1-(2,2-difluoropropyl)-4-(4-fluorophenyl)-1H-imidazol-5-yl)imidazo[1,2-b]pyridazine-3-carboxamide]

Reference: US9884868B2, “TGF-beta inhibitors” (Rigel Pharmaceuticals, Inc., priority 2015, dated 2018)
